Legend:
Assay in all cases: relative viability (nuclei count vs DMSO), 5 days (fraction); higher = more cells survive
201T = tested on: 201T
Outline: (§1)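 One day after seeding in 1536-well plates, lung cancer cell lines were dosed by pin tool. Dosing was either single-drug or a fixed anchor-drug dose plus five library-drug doses (not always all listed) in √10 steps. After 5 days, nuclei were stained in one fix-and-stain step and counted on 4× images, and relative viability is the nuclei count of treated wells over that of vehicle wells, given as the median of duplicate plates.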

A-427 = tested on: A-427
Outline: as §1

ABC-1 = tested on: ABC-1
Outline: as §1

BEN = tested on: BEN
Outline: as §1

CAL-12T = tested on: CAL-12T
Outline: as §1

H3255 = tested on: H3255
Outline: as §1

HCC-15 = tested on: HCC-15
Outline: as §1

LC-2-ad = tested on: LC-2-ad
Outline: as §1

LCLC-97TM1 = tested on: LCLC-97TM1
Outline: as §1

NCI-H1650 = tested on: NCI-H1650
Outline: as §1

NCI-H1651 = tested on: NCI-H1651
Outline: as §1

NCI-H1792 = tested on: NCI-H1792
Outline: as §1

NCI-H1915 = tested on: NCI-H1915
Outline: as §1

NCI-H1944 = tested on: NCI-H1944
Outline: as §1

NCI-H2023 = tested on: NCI-H2023
Outline: as §1

NCI-H2087 = tested on: NCI-H2087
Outline: as §1

NCI-H441 = tested on: NCI-H441
Outline: as §1

NCI-H460 = tested on: NCI-H460
Outline: as §1

NCI-H520 = tested on: NCI-H520
Outline: as §1

NCI-H650 = tested on: NCI-H650
Outline: as §1

NCI-H661 = tested on: NCI-H661
Outline: as §1

NCI-H727 = tested on: NCI-H727
Outline: as §1

PC-3 [JPC-3] = tested on: PC-3 [JPC-3]
Outline: as §1

In the case of `C[C@@H]1CN(CC(=O)Nc2ccc3c(c2)Cc2cccc(-c4cc(=O)cc(N5CCOCC5)o4)c2S3)C[C@H](C)O1` + CC(=O)c1c(C)c2cnc(Nc3ccc(N4CCNCC4)cn3)nc2n(C2CCCC2)c1=O [Palbociclib] (partner 0.5 µM), the relative viability (201T; first compound 0.04 µM) is reported as 0.345, the relative viability (201T; first compound 0.1265 µM) is reported as 0.35 and the relative viability (201T; first compound 0.4 µM) is reported as 0.361. It also gave a relative viability (201T; first compound 4 µM) of 0.336, a relative viability (A-427; first compound 0.04 µM) of 0.428 and a relative viability (A-427; first compound 0.1265 µM) of 0.531. The relative viability (A-427; first compound 0.4 µM) was 0.537, the relative viability (A-427; first compound 4 µM) was 0.593 and the relative viability (ABC-1; first compound 0.04 µM) was 0.376. It also gave a relative viability (ABC-1; first compound 0.1265 µM) of 0.673, a relative viability (ABC-1; first compound 0.4 µM) of 0.634 and a relative viability (ABC-1; first compound 4 µM) of 0.811. The relative viability (BEN; first compound 0.04 µM) was 0.513, the relative viability (BEN; first compound 0.1265 µM) was 0.471 and the relative viability (BEN; first compound 0.4 µM) was 0.481. For the same compound, the relative viability (BEN; first compound 4 µM) was 0.452, the relative viability (CAL-12T; first compound 0.04 µM) was 0.53 and the relative viability (CAL-12T; first compound 0.1265 µM) was 0.411. For the same compound, the relative viability (CAL-12T; first compound 0.4 µM) was 0.44, the relative viability (CAL-12T; first compound 4 µM) was 0.28 and the relative viability (H3255; first compound 0.04 µM) was 0.276. For the same compound, the relative viability (H3255; first compound 0.1265 µM) was 0.345, the relative viability (H3255; first compound 0.4 µM) was 0.268 and the relative viability (H3255; first compound 4 µM) was 0.305. For the same compound, the relative viability (HCC-15; first compound 0.04 µM) was 0.706, the relative viability (HCC-15; first compound 0.1265 µM) was 0.708 and the relative viability (HCC-15; first compound 0.4 µM) was 0.751. It also gave a relative viability (HCC-15; first compound 4 µM) of 0.678, a relative viability (LC-2-ad; first compound 0.04 µM) of 0.493 and a relative viability (LC-2-ad; first compound 0.1265 µM) of 0.465. It also gave a relative viability (LC-2-ad; first compound 0.4 µM) of 0.466, a relative viability (LC-2-ad; first compound 4 µM) of 0.419 and a relative viability (LCLC-97TM1; first compound 0.1265 µM) of 0.25. The relative viability (LCLC-97TM1; first compound 0.4 µM) was 0.206, the relative viability (LCLC-97TM1; first compound 4 µM) was 0.246 and the relative viability (NCI-H1650; first compound 0.04 µM) was 0.376. The relative viability (NCI-H1650; first compound 0.1265 µM) was 0.397, the relative viability (NCI-H1650; first compound 0.4 µM) was 0.285 and the relative viability (NCI-H1650; first compound 4 µM) was 0.262. For the same compound, the relative viability (NCI-H1651; first compound 0.04 µM) was 0.543, the relative viability (NCI-H1651; first compound 0.1265 µM) was 0.502 and the relative viability (NCI-H1651; first compound 0.4 µM) was 0.51. It also gave a relative viability (NCI-H1651; first compound 4 µM) of 0.527, a relative viability (NCI-H1792; first compound 0.04 µM) of 0.61 and a relative viability (NCI-H1792; first compound 0.1265 µM) of 0.594. For the same compound, the relative viability (NCI-H1792; first compound 0.4 µM) was 0.658, the relative viability (NCI-H1792; first compound 4 µM) was 0.563 and the relative viability (NCI-H1915; first compound 0.04 µM) was 0.517. For the same compound, the relative viability (NCI-H1915; first compound 0.1265 µM) was 0.526, the relative viability (NCI-H1915; first compound 0.4 µM) was 0.507 and the relative viability (NCI-H1915; first compound 4 µM) was 0.311. It also gave a relative viability (NCI-H1944; first compound 0.1265 µM) of 0.343, a relative viability (NCI-H1944; first compound 0.4 µM) of 0.344 and a relative viability (NCI-H1944; first compound 4 µM) of 0.354. For the same compound, the relative viability (NCI-H2023; first compound 0.04 µM) was 0.426, the relative viability (NCI-H2023; first compound 0.1265 µM) was 0.336 and the relative viability (NCI-H2023; first compound 0.4 µM) was 0.371. For the same compound, the relative viability (NCI-H2023; first compound 4 µM) was 0.288, the relative viability (NCI-H2087; first compound 0.04 µM) was 0.213 and the relative viability (NCI-H2087; first compound 0.1265 µM) was 0.253. It also gave a relative viability (NCI-H2087; first compound 0.4 µM) of 0.244, a relative viability (NCI-H2087; first compound 4 µM) of 0.267 and a relative viability (NCI-H441; first compound 0.04 µM) of 0.257. It also gave a relative viability (NCI-H441; first compound 0.1265 µM) of 0.213, a relative viability (NCI-H441; first compound 0.4 µM) of 0.223 and a relative viability (NCI-H441; first compound 4 µM) of 0.227. For the same compound, the relative viability (NCI-H460; first compound 0.04 µM) was 0.271, the relative viability (NCI-H460; first compound 0.1265 µM) was 0.155 and the relative viability (NCI-H460; first compound 0.4 µM) was 0.137. It also gave a relative viability (NCI-H460; first compound 4 µM) of 0.143, a relative viability (NCI-H520; first compound 0.04 µM) of 0.219 and a relative viability (NCI-H520; first compound 0.1265 µM) of 0.259. For the same compound, the relative viability (NCI-H520; first compound 0.4 µM) was 0.172, the relative viability (NCI-H520; first compound 4 µM) was 0.215 and the relative viability (NCI-H650; first compound 0.04 µM) was 0.319. It also gave a relative viability (NCI-H650; first compound 0.1265 µM) of 0.389, a relative viability (NCI-H650; first compound 0.4 µM) of 0.378 and a relative viability (NCI-H650; first compound 4 µM) of 0.281. It also gave a relative viability (NCI-H661; first compound 0.04 µM) of 0.404, a relative viability (NCI-H661; first compound 0.1265 µM) of 0.442 and a relative viability (NCI-H661; first compound 0.4 µM) of 0.387. It also gave a relative viability (NCI-H661; first compound 4 µM) of 0.383, a relative viability (NCI-H727; first compound 0.04 µM) of 0.852 and a relative viability (NCI-H727; first compound 0.1265 µM) of 0.596. For the same compound, the relative viability (NCI-H727; first compound 0.4 µM) was 0.679, the relative viability (NCI-H727; first compound 4 µM) was 0.675 and the relative viability (PC-3 [JPC-3]; first compound 0.04 µM) was 0.501. The relative viability (PC-3 [JPC-3]; first compound 0.1265 µM) was 0.515, the relative viability (PC-3 [JPC-3]; first compound 0.4 µM) was 0.535 and the relative viability (PC-3 [JPC-3]; first compound 4 µM) was 0.477.

Reference: the supplement of paper PMC10307832
